The numbers were not newly measured in patent US20030077302A1, “Diclofenamide suspension gel” (priority 2000, published 2003), which cites them from elsewhere.

The subject of series [1] is intraocular pressure. Particulars: rabbits.
For series [2] the following is noted: rabbits, topical suspensions.

On to `NS(=O)(=O)c1cc(Cl)c(Cl)c(S(N)(=O)=O)c1` [diclofenamide sodium], for which the “tolerability, single applications” value (rabbit, in vivo) is listed as “well tolerated”. Moreover, the “side effects, repeated use” value (rabbits, solutions, repeated use) is listed as “severe undesirable side effects”. In addition, in series [1] (topical aqueous solution), the “reduction of the intraocular pressure” value was “clear and long lasting reduction of the intraocular pressure”. The “reduction of the intraocular pressure compared with suspensions of the free acid of diclofenamide” value in series [1] (topical solutions) was “clearly stronger and longer reduction of the intraocular pressure”.
Turning to `NS(=O)(=O)c1cc(Cl)c(Cl)c(S(N)(=O)=O)c1` [diclofenamide, 4,5-dichlorbenzene-1,3-disulfonamide], the “aqueous humor values compared with solutions of sodium diclofenamide” value in series [2] was “clearly at a lower level”.
